Measured values from patent US12258328B2, “6-membered heteroaryl-containing aminopyridine compounds as EGFR inhibitors” (YUHAN CORPORATION, priority 2021, dated 2025).
Like-named read-outs stand apart in the source and are kept apart here.

Columns and labels:
EGFR L858R/T790M/C797S = EGFR L858R/T790M/C797S (Homo sapiens, UniProt P00533, C797S/L858R/T790M); experiment: Biochemical EGFR kinase assay (Lance Ultra TR-FRET), triple mutant L858R/T790M/C797S
Outline: (§1)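 Enzyme reactions lasted 1 hour at room temperature with test compounds between 0.003 and 10 μM, followed by 10 mM EDTA quench.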

EGFR del19/T790M/C797S = EGFR del19/T790M/C797S (Homo sapiens, UniProt P00533, C797S/DEL746-750/T790M); experiment: Biochemical EGFR kinase assay (Lance Ultra TR-FRET), triple mutant del19/T790M/C797S
Outline: as §1

EGFR wildtype = EGFR wildtype (Homo sapiens, UniProt P00533); experiment: Biochemical EGFR kinase assay (Lance Ultra TR-FRET), wildtype
Sequence of EGFR wildtype (P00533 25-1210): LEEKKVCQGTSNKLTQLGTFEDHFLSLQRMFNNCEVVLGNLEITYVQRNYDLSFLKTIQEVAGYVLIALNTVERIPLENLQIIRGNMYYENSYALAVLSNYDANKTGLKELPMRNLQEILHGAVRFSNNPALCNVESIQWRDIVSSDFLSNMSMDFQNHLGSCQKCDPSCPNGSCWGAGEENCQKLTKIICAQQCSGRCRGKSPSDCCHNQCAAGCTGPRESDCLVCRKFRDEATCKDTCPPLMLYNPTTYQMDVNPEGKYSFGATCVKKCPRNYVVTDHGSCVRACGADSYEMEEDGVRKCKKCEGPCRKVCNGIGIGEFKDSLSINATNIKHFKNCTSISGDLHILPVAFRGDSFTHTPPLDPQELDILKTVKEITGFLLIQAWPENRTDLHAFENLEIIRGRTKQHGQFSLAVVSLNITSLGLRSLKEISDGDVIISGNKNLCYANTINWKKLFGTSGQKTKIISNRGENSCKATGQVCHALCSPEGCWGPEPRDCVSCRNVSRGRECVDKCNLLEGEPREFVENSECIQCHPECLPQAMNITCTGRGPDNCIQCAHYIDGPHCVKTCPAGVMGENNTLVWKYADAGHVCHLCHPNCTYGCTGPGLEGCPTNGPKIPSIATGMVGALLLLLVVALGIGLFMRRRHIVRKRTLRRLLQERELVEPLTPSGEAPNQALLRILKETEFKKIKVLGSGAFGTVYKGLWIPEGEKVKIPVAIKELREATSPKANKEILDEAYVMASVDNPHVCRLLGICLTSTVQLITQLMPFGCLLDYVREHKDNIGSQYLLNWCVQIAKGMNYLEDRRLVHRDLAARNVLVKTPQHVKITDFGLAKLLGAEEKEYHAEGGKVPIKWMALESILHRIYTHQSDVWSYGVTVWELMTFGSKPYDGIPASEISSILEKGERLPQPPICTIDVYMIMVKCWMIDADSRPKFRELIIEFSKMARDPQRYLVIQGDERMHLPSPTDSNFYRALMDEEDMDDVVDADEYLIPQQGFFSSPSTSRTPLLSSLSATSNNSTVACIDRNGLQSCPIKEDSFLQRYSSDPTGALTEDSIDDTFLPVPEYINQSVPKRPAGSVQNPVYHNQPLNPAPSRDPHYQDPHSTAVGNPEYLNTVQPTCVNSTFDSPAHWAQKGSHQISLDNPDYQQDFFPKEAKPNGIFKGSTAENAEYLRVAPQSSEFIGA
Outline: as §1

EGFR del19/C797S = EGFR del19/C797S (Homo sapiens, UniProt P00533, C797S/DEL746-750); experiment: Biochemical EGFR kinase assay (Lance Ultra TR-FRET), double mutant del19/C797S
Sequence of EGFR del19/C797S (P00533 with tags, fused parts or gaps DEL746-750/C797S): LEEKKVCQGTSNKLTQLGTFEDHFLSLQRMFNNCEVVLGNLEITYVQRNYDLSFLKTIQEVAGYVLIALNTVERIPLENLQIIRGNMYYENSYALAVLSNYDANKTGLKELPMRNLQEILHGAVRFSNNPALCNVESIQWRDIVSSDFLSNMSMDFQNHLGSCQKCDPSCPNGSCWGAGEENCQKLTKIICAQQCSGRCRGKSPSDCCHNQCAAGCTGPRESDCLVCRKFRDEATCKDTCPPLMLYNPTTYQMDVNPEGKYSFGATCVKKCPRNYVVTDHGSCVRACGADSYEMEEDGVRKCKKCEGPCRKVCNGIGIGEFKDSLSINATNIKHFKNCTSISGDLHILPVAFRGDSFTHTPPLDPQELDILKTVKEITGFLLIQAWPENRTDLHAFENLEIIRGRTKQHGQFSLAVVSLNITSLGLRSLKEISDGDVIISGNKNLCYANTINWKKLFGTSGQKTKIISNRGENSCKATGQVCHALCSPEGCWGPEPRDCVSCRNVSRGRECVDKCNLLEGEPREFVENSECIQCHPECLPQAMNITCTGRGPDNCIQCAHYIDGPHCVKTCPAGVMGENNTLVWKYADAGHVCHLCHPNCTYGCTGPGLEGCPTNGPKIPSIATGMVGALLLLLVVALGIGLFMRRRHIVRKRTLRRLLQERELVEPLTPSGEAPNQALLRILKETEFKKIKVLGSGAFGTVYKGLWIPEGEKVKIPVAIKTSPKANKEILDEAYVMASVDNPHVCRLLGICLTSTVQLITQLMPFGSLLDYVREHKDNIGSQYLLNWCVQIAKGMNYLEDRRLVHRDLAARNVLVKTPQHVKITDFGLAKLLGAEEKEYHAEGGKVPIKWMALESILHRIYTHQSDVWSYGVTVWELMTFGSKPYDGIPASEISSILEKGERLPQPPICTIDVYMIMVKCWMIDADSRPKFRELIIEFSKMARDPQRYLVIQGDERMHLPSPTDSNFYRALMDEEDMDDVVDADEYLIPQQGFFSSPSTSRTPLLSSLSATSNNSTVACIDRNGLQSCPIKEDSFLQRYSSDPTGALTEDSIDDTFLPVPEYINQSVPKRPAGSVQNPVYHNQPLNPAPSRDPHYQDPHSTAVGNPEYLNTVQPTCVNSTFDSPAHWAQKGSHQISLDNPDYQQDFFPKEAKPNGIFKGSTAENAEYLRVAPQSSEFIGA
Outline: as §1

EGFR L858R/C797S = EGFR L858R/C797S (Homo sapiens, UniProt P00533, C797S/L858R); experiment: Biochemical EGFR kinase assay (Lance Ultra TR-FRET), double mutant L858R/C797S
Sequence of EGFR L858R/C797S (P00533 25-1210 C797S/L858R): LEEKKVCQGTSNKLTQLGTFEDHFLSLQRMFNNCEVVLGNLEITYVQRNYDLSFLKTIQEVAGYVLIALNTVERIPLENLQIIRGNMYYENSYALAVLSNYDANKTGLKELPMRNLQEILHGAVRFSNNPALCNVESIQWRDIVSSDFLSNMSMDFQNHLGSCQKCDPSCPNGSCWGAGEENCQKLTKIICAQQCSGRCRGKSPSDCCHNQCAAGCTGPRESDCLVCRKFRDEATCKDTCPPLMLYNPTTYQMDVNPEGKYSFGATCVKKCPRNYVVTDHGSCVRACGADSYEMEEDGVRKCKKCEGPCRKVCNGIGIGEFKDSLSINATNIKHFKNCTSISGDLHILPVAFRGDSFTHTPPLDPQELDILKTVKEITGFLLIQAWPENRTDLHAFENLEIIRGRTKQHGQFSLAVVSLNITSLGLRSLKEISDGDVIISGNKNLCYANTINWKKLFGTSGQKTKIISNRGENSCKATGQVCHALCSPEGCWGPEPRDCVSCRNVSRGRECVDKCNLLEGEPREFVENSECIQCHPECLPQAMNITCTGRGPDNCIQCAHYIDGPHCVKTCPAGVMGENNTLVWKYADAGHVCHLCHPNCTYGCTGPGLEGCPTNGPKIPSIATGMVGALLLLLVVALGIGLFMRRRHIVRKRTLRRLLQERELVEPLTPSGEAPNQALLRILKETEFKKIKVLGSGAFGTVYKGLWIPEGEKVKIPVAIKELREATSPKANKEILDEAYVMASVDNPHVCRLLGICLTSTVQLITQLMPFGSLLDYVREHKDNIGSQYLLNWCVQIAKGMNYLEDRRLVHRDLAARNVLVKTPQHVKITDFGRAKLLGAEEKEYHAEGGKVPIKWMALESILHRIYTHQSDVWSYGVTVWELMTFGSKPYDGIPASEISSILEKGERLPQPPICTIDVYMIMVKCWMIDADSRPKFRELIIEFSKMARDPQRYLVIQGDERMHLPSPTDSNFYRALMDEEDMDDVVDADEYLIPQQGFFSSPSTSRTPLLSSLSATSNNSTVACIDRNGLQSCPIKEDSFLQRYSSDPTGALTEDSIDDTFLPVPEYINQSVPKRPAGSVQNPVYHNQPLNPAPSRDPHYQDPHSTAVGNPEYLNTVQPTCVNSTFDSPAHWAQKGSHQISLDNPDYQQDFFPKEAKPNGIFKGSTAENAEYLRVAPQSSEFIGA
Outline: as §1

[1] = IC50 L858R/T790M/C797S, 100 μM ATP
[2] = IC50 del19/T790M/C797S, 100 μM ATP
[3] = IC50 L858R/T790M/C797S (nM) 100 μM ATP, 100 μM ATP
[4] = Km ATP, read-out: IC50 L858R/T790M/C797S (nM) Km ATP
[5] = IC50 del19/T790M/C797S (nM) 100 μM ATP, 100 μM ATP
[6] = Km ATP, read-out: IC50 del19/T790M/C797S (nM) Km ATP
[7] = IC50 WT (nM) 100 μM ATP, 100 μM ATP
[8] = Km ATP, read-out: IC50 WT (nM) Km ATP
[9] = IC50 del19/C797S (nM) 100 μM ATP, 100 μM ATP
[10] = Km ATP, read-out: IC50 del19/C797S (nM) Km ATP
[11] = IC50 L858R/C797S (nM) 100 μM ATP, 100 μM ATP
[12] = Km ATP, read-out: IC50 L858R/C797S (nM) Km ATP
[13] = ATP at Km, read-out: IC50 L858R/T790M/C797S, Km ATP
[14] = ATP at Km, read-out: IC50 del19/T790M/C797S, Km ATP
[15] = ATP at Km, read-out: IC50 WT, Km ATP
[16] = ATP at Km, read-out: IC50 del19/C797S, Km ATP
[17] = ATP at Km, read-out: IC50 L858R/C797S, Km ATP

Sequence of EGFR L858R/T790M/C797S (P00533 25-1210 T790M/C797S/L858R): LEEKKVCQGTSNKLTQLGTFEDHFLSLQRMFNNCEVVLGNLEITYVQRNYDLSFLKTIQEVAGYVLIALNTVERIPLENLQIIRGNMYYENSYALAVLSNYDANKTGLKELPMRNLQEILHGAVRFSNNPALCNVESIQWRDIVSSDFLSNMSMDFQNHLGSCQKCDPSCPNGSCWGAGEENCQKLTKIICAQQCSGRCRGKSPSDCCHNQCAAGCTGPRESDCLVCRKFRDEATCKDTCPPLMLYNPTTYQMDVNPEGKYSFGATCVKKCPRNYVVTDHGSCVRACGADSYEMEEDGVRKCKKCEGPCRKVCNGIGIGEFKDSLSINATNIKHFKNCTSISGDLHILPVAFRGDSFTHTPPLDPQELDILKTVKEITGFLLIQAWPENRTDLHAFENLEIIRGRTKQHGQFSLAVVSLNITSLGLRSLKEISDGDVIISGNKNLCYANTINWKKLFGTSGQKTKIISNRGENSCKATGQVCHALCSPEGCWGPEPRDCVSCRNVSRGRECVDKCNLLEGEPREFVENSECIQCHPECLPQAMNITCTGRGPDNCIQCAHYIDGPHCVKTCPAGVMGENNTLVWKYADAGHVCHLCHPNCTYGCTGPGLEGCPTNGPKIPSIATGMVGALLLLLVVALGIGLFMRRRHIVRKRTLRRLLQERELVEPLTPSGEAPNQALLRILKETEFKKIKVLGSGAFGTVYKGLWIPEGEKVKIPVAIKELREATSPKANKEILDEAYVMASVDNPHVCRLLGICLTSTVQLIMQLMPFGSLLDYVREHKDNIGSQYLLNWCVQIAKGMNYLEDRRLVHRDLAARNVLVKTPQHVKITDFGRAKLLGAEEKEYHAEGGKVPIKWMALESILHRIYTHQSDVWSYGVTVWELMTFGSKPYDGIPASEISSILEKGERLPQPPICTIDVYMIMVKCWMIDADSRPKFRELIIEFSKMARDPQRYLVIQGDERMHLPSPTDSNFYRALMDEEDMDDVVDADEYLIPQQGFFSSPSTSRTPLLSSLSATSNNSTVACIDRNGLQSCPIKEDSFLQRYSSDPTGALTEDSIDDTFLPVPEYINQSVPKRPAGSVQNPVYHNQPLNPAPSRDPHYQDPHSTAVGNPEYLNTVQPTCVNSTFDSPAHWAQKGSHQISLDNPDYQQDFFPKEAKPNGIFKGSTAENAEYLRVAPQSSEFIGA

Row | SMILES | IC50 (EGFR L858R/T790M/C797S; [1]) [nM] | IC50 (EGFR del19/T790M/C797S; [2]) [nM] | IC50 (EGFR wildtype; IC50 WT, 100 μM ATP) [nM] | IC50 (EGFR del19/C797S; IC50 del19/C797S, 100 μM ATP) [nM] | IC50 (EGFR L858R/C797S; IC50 L858R/C797S, 100 μM ATP) [nM] | IC50 (EGFR L858R/T790M/C797S; [3]) [nM] | IC50 (EGFR L858R/T790M/C797S; [4]) [nM] | IC50 (EGFR del19/T790M/C797S; [5]) [nM] | IC50 (EGFR del19/T790M/C797S; [6]) [nM] | IC50 (EGFR wildtype; [7]) [nM] | IC50 (EGFR wildtype; [8]) [nM] | IC50 (EGFR del19/C797S; [9]) [nM] | IC50 (EGFR del19/C797S; [10]) [nM] | IC50 (EGFR L858R/C797S; [11]) [nM] | IC50 (EGFR L858R/C797S; [12]) [nM] | IC50 (EGFR L858R/T790M/C797S; [13]) [nM] | IC50 (EGFR del19/T790M/C797S; [14]) [nM] | IC50 (EGFR wildtype; [15]) [nM] | IC50 (EGFR del19/C797S; [16]) [nM] | IC50 (EGFR L858R/C797S; [17]) [nM]
1 | C[C@]1(O)CC[C@@H](Nc2cc(Nc3ccnc(-c4cnn(S(=O)(=O)C5CC5)c4)n3)ncc2-c2cc(NCCCO)ccn2)CC1 [Example 282, (1s,4s)-4-((6′-((2-(1-(Cyclopropylsulfonyl)-1H-pyrazol-4-yl)pyrimidin-4-yl)amino)-4-((3-hydroxypropyl)amino)-[2,3′-bipyridin]-4′-yl)amino)-1-methylcyclohexan-1-ol] | 0.4 | 0.2 | 3970 | 1.4 | 7 |  |  |  |  |  |  |  |  |  |  |  |  |  |  | 
2 | CN(C)C[C@H]1CC[C@@H](Nc2cc(Nc3ccnc(-c4cnn(S(=O)(=O)C5CC5)c4)n3)ncc2-c2cc(C(C)(C)O)ccn2)CC1 [Example 110, 2-(6′-((2-(1-(Cyclopropylsulfonyl)-1H-pyrazol-4-yl)pyrimidin-4-yl)amino)-4′-(((1s,4s)-4-((dimethylamino)methyl)cyclohexyl)amino)-[2,3′-bipyridin]-4-yl)propan-2-ol] |  |  |  |  |  | 0.1 | 0.1 | 0.2 | 0.1 | 178 | 0.9 | 0.3 | 0.3 | 0.5 | 0.04 |  |  |  |  | 
3 | CN(C)C[C@H]1CC[C@@H](Nc2cc(Nc3ccnc(-c4cnn(S(=O)(=O)C5CC5)c4)n3)ncc2-c2cccc(CC(F)(F)F)n2)CC1 [Example 248, N^6′-(2-(1-(Cyclopropylsulfonyl)-1H-pyrazol-4-yl)pyrimidin-4-yl)-N^4′-((1s,4s)-4-((dimethylamino)methyl)cyclohexyl)-6-(2,2,2-trifluoroethyl)-[2,3′-bipyridine]-4′,6′-diamine] | 0.3 | 0.4 | 7620 | 5 | 9.7 |  |  |  |  |  |  |  |  |  |  | 0.1 | 0.4 | 4.6 | 2 | 1.8
4 | CC(C)(O)[C@H]1CC[C@@H](Nc2cc(Nc3ccnc(-c4cnn(S(=O)(=O)C5CC5)c4)n3)ncc2-c2ccc(N3CCCC3)cn2)CC1 [Example 82, 2-((1s,4s)-4-((6′-((2-(1-(Cyclopropylsulfonyl)-1H-pyrazol-4-yl)pyrimidin-4-yl)amino)-5-(pyrrolidin-1-yl)-[2,3′-bipyridin]-4′-yl)amino)cyclohexyl)propan-2-ol] |  |  |  |  |  | 15.4 | 2.8 | 10.5 | 6.5 | > 10000 | 29.6 | 13.3 | 7.9 | 73.3 | 7.8 |  |  |  |  | 
5 | CN1CCN(c2ccc(-c3cnc(Nc4ccnc(-c5cnn(S(=O)(=O)C6CC6)c5)n4)cc3N[C@H]3CC[C@@H](C(C)(C)O)CC3)nc2)CC1 [Example 84, 2-((1s,4s)-4-((6′-((2-(1-(Cyclopropylsulfonyl)-1H-pyrazol-4-yl)pyrimidin-4-yl)amino)-5-(4-methylpiperazin-1-yl)-[2,3′-bipyridin]-4′-yl)amino)cyclohexyl)propan-2-ol] |  |  |  |  |  | 0.5 | 0.3 | 0.7 | 0.9 | 181 | 0.6 | 0.6 | 0.4 | 0.5 | 0.2 |  |  |  |  | 
6 | CC1CCN(S(=O)(=O)c2ccc(-c3cnc(Nc4ccnc(-c5cnn(S(=O)(=O)C6CC6)c5)n4)cc3N[C@H]3CC[C@@H](C(C)(C)O)CC3)nc2)CC1 [Example 187, 2-((1s,4s)-4-((6′-((2-(1-(Cyclopropylsulfonyl)-1H-pyrazol-4-yl)pyrimidin-4-yl)amino)-5-((4-methylpiperidin-1-yl)sulfonyl)-[2,3′-bipyridin]-4′-yl)amino)cyclohexyl)propan-2-ol] | 96.9 | 239 | > 10000 | 178 | 1950 |  |  |  |  |  |  |  |  |  |  |  |  |  |  | 
7 | C[C@]1(O)CC[C@@H](Nc2cc(Nc3ccnc(-c4cnn(S(=O)(=O)C5CC5)c4)n3)ncc2-c2cccnn2)CC1 [Example 42, (1s,4s)-4-((2-((2-(1-(Cyclopropylsulfonyl)-1H-pyrazol-4-yl)pyrimidin-4-yl)amino)-5-(pyridazin-3-yl)pyridin-4-yl)amino)-1-methylcyclohexan-1-ol] |  |  |  |  |  | 0.1 | 0.03 | 0.1 | 0.1 | 1360 |  | 0.2 | 0.3 | 2.3 | 0.4 |  |  |  |  | 
8 | C[C@]1(O)CC[C@@H](Nc2cc(Nc3ccnc(-c4cnn(S(=O)(=O)C5CC5)c4)n3)ncc2-c2cccc(F)n2)CC1 [Example 271, (1s,4s)-4-((6′-((2-(1-(Cyclopropylsulfonyl)-1H-pyrazol-4-yl)pyrimidin-4-yl)amino)-6-fluoro-[2,3′-bipyridin]-4′-yl)amino)-1-methylcyclohexan-1-ol] | 0.4 | 0.6 | > 10000 | 0.7 | 7.9 |  |  |  |  |  |  |  |  |  |  | 0.2 | 0.5 | 3.8 | 0.9 | 0.6
9 | CC(C)(O)[C@H]1CC[C@@H](Nc2cc(Nc3ccnc(-c4cnn(S(=O)(=O)C5CC5)c4)n3)ncc2-c2ccc(S(C)(=O)=O)cn2)CC1 [Example 160, 2-((1s,4s)-4-((6′-((2-(1-(Cyclopropylsulfonyl)-1H-pyrazol-4-yl)pyrimidin-4-yl)amino)-5-(methylsulfonyl)-[2,3′-bipyridin]-4′-yl)amino)cyclohexyl)propan-2-ol] | 0.7 | 0.8 | > 10000 | 1.3 | 15 |  |  |  |  |  |  |  |  |  |  | 0.2 | 0.5 | 5.1 | 0.5 | 3
10 | CN(C)CCOc1cnc(-c2cnc(Nc3ccnc(-c4cnn(S(=O)(=O)C5CC5)c4)n3)cc2N[C@H]2CC[C@@H](CO)CC2)cn1 [Example 116, ((1s,4s)-4-((2-((2-(1-(Cyclopropylsulfonyl)-1H-pyrazol-4-yl)pyrimidin-4-yl)amino)-5-(5-(2-(dimethylamino)ethoxy)pyrazin-2-yl)pyridin-4-yl)amino)cyclohexyl)methanol] |  |  |  |  |  | 0.04 | 0.04 | 0.1 | 0.1 | 384 | 0.4 | 0.1 | 0.1 | 0.3 | 0.1 |  |  |  |  | 
